# Source: ChEMBL document CHEMBL5154712, “Activators of the Anticipatory Unfolded Protein Response with Enhanced Selectivity for Estrogen Receptor Positive Breast Cancer” (J Med Chem, 2022)
# pIC50: −log10 of the molar value.
# Assays:
# MCF7 [1] = assay: Anticancer activity against human MCF7 cells assessed as cell growth inhibition incubated for 24 hrs by alamar blue assay; type: functional, cell-based; conditions: MCF7, 24 h
# MCF7 [2] = assay: Anticancer activity against ERalpha positive human MCF7 cells assessed as cell growth inhibition incubated for 72 hrs by alamar blue assay; type: functional, cell-based; conditions: MCF7, 72 h
# HCT-116 [3] = assay: Anticancer activity against ERalpha negative human HCT-116 cells assessed as cell growth inhibition incubated for 24 hrs by alamar blue assay; type: functional, cell-based; conditions: HCT-116, 24 h
# HCT-116 [4] = assay: Anticancer activity against ERalpha negative human HCT-116 cells assessed as cell growth inhibition incubated for 72 hrs by alamar blue assay; type: functional, cell-based; conditions: HCT-116, 72 h
# [5] = Selectivity ratio of IC50 for human MDA-MB-231 cells to IC50 for human MCF7 cells; type: functional
# [6] = Stability of the compound in simulated gastric fluid assessed as compound remaining measured after 120 mins by LC-MS/MS; type: ADME; conditions: read-out: Stability
# [7] = Selectivity ratio of IC50 for human HT-29 cells to IC50 for human MCF7 cells; type: functional
# HT-29 [8] = assay: Anticancer activity against ERalpha negative human HT-29 cells assessed as cell growth inhibition incubated for 72 hrs by alamar blue assay; type: functional, cell-based; conditions: HT-29, 72 h
# [9] = Selectivity ratio of IC50 for human HCT-116 cells to IC50 for human MCF7 cells; type: functional
# MDA-MB-231 [10] = assay: Anticancer activity against ERalpha negative human MDA-MB-231 cells assessed as cell growth inhibition incubated for 72 hrs by alamar blue assay; type: functional, cell-based; conditions: MDA-MB-231, 72 h
# HT-29 [11] = assay: Anticancer activity against ERalpha negative human HT-29 cells assessed as cell growth inhibition incubated for 24 hrs by alamar blue assay; type: functional, cell-based; conditions: HT-29, 24 h
# MDA-MB-231 [12] = assay: Anticancer activity against ERalpha negative human MDA-MB-231 cells assessed as cell growth inhibition incubated for 24 hrs by alamar blue assay; type: functional, cell-based; conditions: MDA-MB-231, 24 h
compound,measurement,setting,value
O=C1Nc2c(C(F)(F)F)cccc2C1(c1ccc(O)cc1)N1CCC(OC(F)(F)F)CC1 (centres undefined),pIC50,MCF7 [1],6.87
O=C1Nc2c(C(F)(F)F)cccc2[C@@]1(c1ccc(O)cc1)N1CC(F)(F)C1,pIC50,MCF7 [2],6.93
O=C1Nc2c(C(F)(F)F)cccc2[C@]1(c1ccc(OC(F)(F)F)cc1)c1ccc(O)c(O)c1,pIC50,MCF7 [1],7.62
O=C1Nc2c(C(F)(F)F)cccc2C1(c1ccc(O)cc1)N1CCCCCC1 (centres undefined),pIC50,MCF7 [1],< 6.00
CC(C)c1cc(C2(c3ccc(OC(F)(F)F)cc3)C(=O)Nc3c(C(F)(F)F)cccc32)cc(C(C)C)c1O (centres undefined),pIC50,MCF7 [1],< 6.00
O=C1Nc2c(C(F)(F)F)cccc2C1(c1ccc(OC(F)(F)F)cc1)c1ccc(OC(F)(F)F)cc1,pIC50,MCF7 [1],< 6.00
O=C1Nc2c(C(F)(F)F)cccc2C1(c1ccc(OC(F)(F)F)cc1)c1ccc(O)c(F)c1 (centres undefined),pIC50,MCF7 [1],7.48
Cc1cc(C2(c3ccc(OC(F)(F)F)cc3)C(=O)Nc3c(C(F)(F)F)cccc32)cc(C)c1O (centres undefined),pIC50,MCF7 [1],< 6.00
O=C1Nc2c(C(F)(F)F)cccc2[C@@]1(c1ccc(O)cc1)N1CCC(F)CC1,pIC50,MCF7 [2],6.83
same,pIC50,MCF7 [1],< 6.00
O=C1Nc2c(C(F)(F)F)cccc2C1(c1ccc(OC(F)(F)F)cc1)c1ccc(O)cc1F (centres undefined),pIC50,MCF7 [1],6.75
O=C1Nc2c(C(F)(F)F)cccc2[C@@]1(c1ccc(O)cc1)N1CCCC(F)(F)C1,pIC50,HCT-116 [3],4.42
same,pIC50,HCT-116 [4],4.68
same,Ratio IC50,[5],700
same,remaining at 2 h,[6],0%
same,pIC50,MCF7 [2],7.48
same,Ratio IC50,[7],800
same,pIC50,HT-29 [8],4.60
same,pIC50,MCF7 [1],7.41
same,Ratio IC50,[9],600
same,pIC50,MDA-MB-231 [10],4.66
same,pIC50,HT-29 [11],4.54
same,pIC50,MDA-MB-231 [12],4.31
O=C1Nc2c(C(F)(F)F)cccc2C1(c1ccc(O)cc1)N1CCOCC1 (centres undefined),pIC50,MCF7 [1],< 6.00
